In patent US20060069132A1, “Azolecarboxamide herbicides” (priority 2004, published 2006):

Tests used:
barnyardgrass = test: Test E pre-/postemergence herbicide test; assay type: in vivo, Echinochloa crus-galli
How it was run: (§1)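 Greenhouse whole-plant test: compounds formulated in a non-phytotoxic solvent mixture with surfactant were applied preemergence to planted seeds and, concurrently, postemergence to plants 2 to 18 cm tall. Response was scored visually after 12 to 14 days, 0 meaning no effect and 100 complete control.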

hairy beggarticks = test: Test E pre-/postemergence herbicide test; assay type: in vivo, Bidens radiata; conditions: Preemergence
Source text: Seeds of plant species selected from bipinnate beggarticks (Bidens bipinnata L.), hairy beggarticks (Bidens radiata Thuill.), bermudagrass (Cynodon dactylon (L.) Pers.), Surinam grass (Urochloa decumbens (Staph) R. D. Webster, previously named Brachiaria decumbens Stapf), large crabgrass (Digitaria sanguinalis (L.) Scop.), green foxtail (Setaria viridis (L.) P. Beauv.), goosegrass (Eleusine indica (L.) Gaertn.), johnsongrass (Sorghum halepense (L.) Pers.), kochia (Kochia scoparia (L.) Schrad.), pitted morningglory (Ipomoea lacunosa L.), purple nutsedge (Cyperus rotundus L.), common ragweed (Ambrosia elatior L.), mustard (Brassica nigra (L.) W. D. J. Koch), guineagrass (Panicum maximum Jacq.), dallisgrass (Paspalum dilatatum Poir.), barnyardgrass (Echinochloa crus-galli (L). P. Beauv.), southern sandbur (Cenchrus echinatus L.), common sowthistle (Sonchus oleraceous L.), prickly sida (Sida spinosa L.), Italian ryegrass (Lolium multiflorum Lam.), common purslane (Portulaca oleracea L.), broadleaf signalgrass (Brachiaria platyphylla (Griseb.) Nash), common groundsel (Senecio vulgaris L.), common chickweed (Stellaria media (L.) Vill/Cyr.), tropical spiderwort (Commelina benghalensis L.), annual bluegrass (Poa annua L.), downy bromegrass (Bromus tectorum L.), itchgrass (Rottboellia cochinchinensis (L.) L.f.), quackgrass (Elytrigia repens (L.) Nevski), Canada horseweed (Erigeron Canadensis L.), field bindweed (Convolvulus arvensis L.), spotted spurge (Euphorbia maculata L.), common mallow (Malva sylvestris (=s silvestris) L.), and Russian thistle (Salsola kali L. ssp. Ruthenica (Iljin) Soo) were planted and treated preemergence with test chemicals formulated in a non-phytotoxic solvent mixture which included a surfactant.
At the same time, plants selected from these weed species were treated with postemergence applications of some of the test chemicals formulated in the same manner. Plants ranged in height from 2 to 18 cm (1- to 4-leaf stage) for postemergence treatments. Treated plants and controls were maintained in a greenhouse for 12 to 14 days, after which time all species were compared to controls and visually evaluated. Plant response ratings, summarized in Table E, are based on a scale of 0 to 100 where 0 is no effect and 100 is complete control. A dash (-) response means no test result.

common groundsel = test: Test E pre-/postemergence herbicide test; assay type: in vivo, Senecio vulgaris
How it was run: as §1

johnsongrass = test: Test E pre-/postemergence herbicide test; assay type: in vivo, Sorghum halepense
How it was run: as §1

guineagrass = test: Test E pre-/postemergence herbicide test; assay type: in vivo, Panicum maximum
How it was run: as §1

downy bromegrass [1] = test: Test E pre-/postemergence herbicide test; assay type: in vivo, Bromus tectorum
How it was run: as §1

field bindweed = test: Test E pre-/postemergence herbicide test; assay type: in vivo, Convolvulus arvensis
How it was run: as §1

broadleaf signalgrass = test: Test E pre-/postemergence herbicide test; assay type: in vivo, Brachiaria platyphylla
How it was run: as §1

large crabgrass = test: Test E pre-/postemergence herbicide test; assay type: in vivo, Digitaria sanguinalis
How it was run: as §1

common purslane = test: Test E pre-/postemergence herbicide test; assay type: in vivo, Portulaca oleracea
How it was run: as §1

Italian ryegrass = test: Test C postemergence herbicide test; assay type: in vivo, Lolium multiflorum
How it was run: (§2)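 Weeds and wheat were sprayed after emergence, at a height of 2 to 18 cm (1–4 leaves), and paddy barnyardgrass was flooded and treated at two leaves. Assessment took place 12–14 days later in the greenhouse on a 0-to-100 visual control scale. A dash means no result was obtained.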

downy bromegrass [2] = test: Test C postemergence herbicide test; assay type: in vivo, Bromus tectorum
How it was run: as §2

wheat = test: Test C postemergence herbicide test; assay type: in vivo, Triticum aestivum
How it was run: as §2

green foxtail = test: Test C postemergence herbicide test; assay type: in vivo, Setaria viridis
How it was run: as §2

[3] = Postemergence, 500 g ai/ha, scale 0 to 100
[4] = Postemergence, 250 g ai/ha, scale 0 to 100
[5] = Preemergence, 62 g ai/ha, scale 0 to 100
[6] = Preemergence, 125 g ai/ha, scale 0 to 100
[7] = Preemergence, 250 g ai/ha, scale 0 (no effect) to 100 (complete control)
[8] = Preemergence, 500 g ai/ha, scale 0 (no effect) to 100 (complete control)
[9] = postemergence, 125 g ai/ha, scale 0 to 100
[10] = postemergence, 62 g ai/ha, scale 0 to 100
[11] = 250 g ai/ha, scale 0 (no effect) to 100 (complete control)
[12] = 500 g ai/ha, scale 0 (no effect) to 100 (complete control)
[13] = Postemergence, 500 g ai/ha, scale 0 to 100, 0 no effect, 100 complete control
[14] = Postemergence, 250 g ai/ha, scale 0 to 100, 0 no effect, 100 complete control
[15] = Preemergence, 375 g ai/ha, scale 0 (no effect) to 100 (complete control)

CCn1nc(C2(C)CC2)cc1C(=O)Nc1cc(C(=O)N(C)C)ccc1F [Compound 299]
Plant response rating, Barnyardgrass (barnyardgrass; [3]): 80 | Plant response rating, Barnyardgrass (barnyardgrass; [4]): 70 | Plant response rating, Barnyardgrass (barnyardgrass; [5]): 60 | Plant response rating, Barnyardgrass (barnyardgrass; [6]): 85 | Plant response rating, Barnyardgrass (barnyardgrass; [7]): 95 | Plant response rating, Barnyardgrass (barnyardgrass; [8]): 100 | Plant response rating, Barnyardgrass (barnyardgrass; [9]): 70 | Plant response rating, Barnyardgrass (barnyardgrass; [10]): 40 | Plant response rating, Beggarticks, Hairy (hairy beggarticks; 62 g ai/ha, scale 0 to 100): 50 | Plant response rating, Beggarticks, Hairy (hairy beggarticks; 125 g ai/ha, scale 0 to 100): 100 | Plant response rating, Beggarticks, Hairy (hairy beggarticks; [11]): 100 | Plant response rating, Beggarticks, Hairy (hairy beggarticks; [12]): 100 | Plant response rating, Groundsel (common groundsel; [4]): 100 | Plant response rating, Groundsel (common groundsel; [9]): 70 | Plant response rating, Johnsongrass (johnsongrass; [3]): 85 | Plant response rating, Johnsongrass (johnsongrass; [4]): 85 | Plant response rating, Johnsongrass (johnsongrass; [5]): 40 | Plant response rating, Johnsongrass (johnsongrass; [6]): 60 | Plant response rating, Johnsongrass (johnsongrass; [7]): 80 | Plant response rating, Johnsongrass (johnsongrass; [8]): 100 | Plant response rating, Johnsongrass (johnsongrass; [9]): 80 | Plant response rating, Johnsongrass (johnsongrass; [10]): 60 | Plant response rating, Guineagrass (guineagrass; [3]): 85 | Plant response rating, Guineagrass (guineagrass; [4]): 75 | Plant response rating, Guineagrass (guineagrass; [5]): 70 | Plant response rating, Guineagrass (guineagrass; [6]): 85 | Plant response rating, Guineagrass (guineagrass; [7]): 100 | Plant response rating, Guineagrass (guineagrass; [8]): 100 | Plant response rating, Guineagrass (guineagrass; [9]): 70 | Plant response rating, Guineagrass (guineagrass; [10]): 60 | Plant response rating, Bromegrass, Downy (downy bromegrass [1]; [3]): 95 | Plant response rating, Bromegrass, Downy (downy bromegrass [1]; [4]): 80 | Plant response rating, Bromegrass, Downy (downy bromegrass [1]; [7]): 100 | Plant response rating, Bromegrass, Downy (downy bromegrass [1]; [8]): 100 | Plant response rating, Bromegrass, Downy (downy bromegrass [1]; [9]): 70 | Plant response rating, Bromegrass, Downy (downy bromegrass [1]; [10]): 50 | Plant response rating, Bindweed, Field (field bindweed; [3]): 95 | Plant response rating, Bindweed, Field (field bindweed; [4]): 80 | Plant response rating, Bindweed, Field (field bindweed; [5]): 10 | Plant response rating, Bindweed, Field (field bindweed; [6]): 60 | Plant response rating, Bindweed, Field (field bindweed; [7]): 95 | Plant response rating, Bindweed, Field (field bindweed; [8]): 100 | Plant response rating, Bindweed, Field (field bindweed; [9]): 70 | Plant response rating, Bindweed, Field (field bindweed; [10]): 30 | Plant response rating, Signalgrass (broadleaf signalgrass; [3]): 80 | Plant response rating, Signalgrass (broadleaf signalgrass; [4]): 70 | Plant response rating, Signalgrass (broadleaf signalgrass; [5]): 60 | Plant response rating, Signalgrass (broadleaf signalgrass; [6]): 80 | Plant response rating, Signalgrass (broadleaf signalgrass; [7]): 100 | Plant response rating, Signalgrass (broadleaf signalgrass; [8]): 100 | Plant response rating, Signalgrass (broadleaf signalgrass; [9]): 60 | Plant response rating, Signalgrass (broadleaf signalgrass; [10]): 20 | Plant response rating, Crabgrass, Large (large crabgrass; [3]): 95 | Plant response rating, Crabgrass, Large (large crabgrass; [4]): 95 | Plant response rating, Crabgrass, Large (large crabgrass; [5]): 90 | Plant response rating, Crabgrass, Large (large crabgrass; [6]): 100 | Plant response rating, Crabgrass, Large (large crabgrass; [7]): 100 | Plant response rating, Crabgrass, Large (large crabgrass; [8]): 100 | Plant response rating, Crabgrass, Large (large crabgrass; [9]): 85 | Plant response rating, Crabgrass, Large (large crabgrass; [10]): 75 | Plant response rating, Purslane (common purslane; [3]): 100 | Plant response rating, Purslane (common purslane; [4]): 80 | Plant response rating, Purslane (common purslane; [9]): 75 | Plant response rating, Purslane (common purslane; [10]): 70

CCNC(=O)c1cccc(NC(=O)c2nn(C(C)(C)C)nc2C)c1 [Compound 392]
Plant response rating, Ryegrass, Italian (Italian ryegrass; [13]): 65 | Plant response rating, Ryegrass, Italian (Italian ryegrass; [9]): 50 | Plant response rating, Ryegrass, Italian (Italian ryegrass; [10]): 35 | Plant response rating, Barnyardgrass (barnyardgrass; [5]): 75 | Plant response rating, Barnyardgrass (barnyardgrass; [6]): 75 | Plant response rating, Barnyardgrass (barnyardgrass; [7]): 90 | Plant response rating, Barnyardgrass (barnyardgrass; [8]): 100 | Plant response rating, Bromegrass, Downy (downy bromegrass [2]; [14]): 55 | Plant response rating, Bromegrass, Downy (downy bromegrass [2]; [13]): 60 | Plant response rating, Bromegrass, Downy (downy bromegrass [2]; [9]): 55 | Plant response rating, Bromegrass, Downy (downy bromegrass [2]; [10]): 35 | Plant response rating, Groundsel (common groundsel; [5]): 10 | Plant response rating, Groundsel (common groundsel; [6]): 60 | Plant response rating, Groundsel (common groundsel; [7]): 60 | Plant response rating, Groundsel (common groundsel; [8]): 95 | Plant response rating, Johnsongrass (johnsongrass; [5]): 10 | Plant response rating, Johnsongrass (johnsongrass; [6]): 30 | Plant response rating, Johnsongrass (johnsongrass; [7]): 90 | Plant response rating, Johnsongrass (johnsongrass; [8]): 95 | Plant response rating, Guineagrass (guineagrass; [5]): 75 | Plant response rating, Guineagrass (guineagrass; [6]): 80 | Plant response rating, Guineagrass (guineagrass; [7]): 95 | Plant response rating, Guineagrass (guineagrass; [8]): 100 | Plant response rating, Bromegrass, Downy (downy bromegrass [1]; [5]): 10 | Plant response rating, Bromegrass, Downy (downy bromegrass [1]; [6]): 20 | Plant response rating, Bromegrass, Downy (downy bromegrass [1]; [7]): 30 | Plant response rating, Bromegrass, Downy (downy bromegrass [1]; [8]): 30 | Plant response rating, Wheat (wheat; [13]): 35 | Plant response rating, Wheat (wheat; [9]): 30 | Plant response rating, Wheat (wheat; [10]): 20 | Plant response rating, Bindweed, Field (field bindweed; [5]): 30 | Plant response rating, Bindweed, Field (field bindweed; [6]): 30 | Plant response rating, Bindweed, Field (field bindweed; [7]): 100 | Plant response rating, Bindweed, Field (field bindweed; [8]): 100 | Plant response rating, Signalgrass (broadleaf signalgrass; [5]): 10 | Plant response rating, Signalgrass (broadleaf signalgrass; [6]): 30 | Plant response rating, Signalgrass (broadleaf signalgrass; [7]): 70 | Plant response rating, Signalgrass (broadleaf signalgrass; [8]): 85 | Plant response rating, Crabgrass, Large (large crabgrass; [5]): 75 | Plant response rating, Crabgrass, Large (large crabgrass; [6]): 95 | Plant response rating, Crabgrass, Large (large crabgrass; [7]): 95 | Plant response rating, Crabgrass, Large (large crabgrass; [8]): 95 | Plant response rating, Purslane (common purslane; [6]): 90 | Plant response rating, Purslane (common purslane; [7]): 100 | Plant response rating, Purslane (common purslane; [8]): 100 | Plant response rating, Foxtail, Green (green foxtail; [14]): 65 | Plant response rating, Foxtail, Green (green foxtail; [13]): 70 | Plant response rating, Foxtail, Green (green foxtail; [9]): 60 | Plant response rating, Foxtail, Green (green foxtail; [10]): 60

CCc1nn(C(C)(C)C)cc1C(=O)Nc1cc(C(=O)N(C)C)ccn1 [Compound 293]
Plant response rating, Barnyardgrass (barnyardgrass; [6]): 60 | Plant response rating, Barnyardgrass (barnyardgrass; [7]): 100 | Plant response rating, Barnyardgrass (barnyardgrass; [15]): 100 | Plant response rating, Barnyardgrass (barnyardgrass; [8]): 100 | Plant response rating, Beggarticks, Hairy (hairy beggarticks; 125 g ai/ha, scale 0 to 100): 100 | Plant response rating, Beggarticks, Hairy (hairy beggarticks; [11]): 100 | Plant response rating, Beggarticks, Hairy (hairy beggarticks; 375 g ai/ha, scale 0 (no effect) to 100 (complete control)): 100 | Plant response rating, Beggarticks, Hairy (hairy beggarticks; [12]): 100 | Plant response rating, Johnsongrass (johnsongrass; [6]): 10 | Plant response rating, Johnsongrass (johnsongrass; [7]): 60 | Plant response rating, Johnsongrass (johnsongrass; [15]): 70 | Plant response rating, Johnsongrass (johnsongrass; [8]): 85 | Plant response rating, Guineagrass (guineagrass; [6]): 100 | Plant response rating, Guineagrass (guineagrass; [7]): 100 | Plant response rating, Guineagrass (guineagrass; [15]): 100 | Plant response rating, Guineagrass (guineagrass; [8]): 100 | Plant response rating, Bromegrass, Downy (downy bromegrass [1]; [7]): 80 | Plant response rating, Bromegrass, Downy (downy bromegrass [1]; [8]): 80 | Plant response rating, Bindweed, Field (field bindweed; [6]): 40 | Plant response rating, Bindweed, Field (field bindweed; [7]): 60 | Plant response rating, Bindweed, Field (field bindweed; [15]): 95 | Plant response rating, Bindweed, Field (field bindweed; [8]): 95 | Plant response rating, Signalgrass (broadleaf signalgrass; [6]): 50 | Plant response rating, Signalgrass (broadleaf signalgrass; [7]): 95 | Plant response rating, Signalgrass (broadleaf signalgrass; [15]): 95 | Plant response rating, Signalgrass (broadleaf signalgrass; [8]): 100 | Plant response rating, Crabgrass, Large (large crabgrass; [6]): 95 | Plant response rating, Crabgrass, Large (large crabgrass; [7]): 95 | Plant response rating, Crabgrass, Large (large crabgrass; [15]): 100 | Plant response rating, Crabgrass, Large (large crabgrass; [8]): 100
